Experimental data published in patent US20060251714A1, “Pharmaceutical formulations of amyloid inhibiting compounds” (priority 2005, published 2006).
Read-outs that look alike come from different tables or passages of the source.

Key:
[1] = Example 10: 12-week placebo-controlled study in mild to moderate Alzheimer's Disease patients, plasma pharmacokinetics; format: in vivo, human; details: AD patients; for AUC∞: mean, only patients with estimable elimination rate constant
Source text: (§1) In the following examples and elsewhere herein, terms are as defined below. The pharmacokinetic parameters were derived by non-compartmental analysis using WinNonlin® (Pharsight Corporation, Mountain View, Calif.) or SAS® for Windows® (SAS Institute Inc., Cary, N.C.).
AUCss—the area under the plasma concentrations versus time curve during a dosing interval at steady state.
(§2) A multicenter, randomized, double-blind, placebo-controlled and parallel designed study is made with 3-APS in the formulation described in Table 5 above in patients suffering from mild to moderate Alzheimer's Disease (AD). An objective of this study is to assess the safety and tolerability of 3-APS and to assess its pharmacokinetics in AD patients. A total of fifty-eight (58) mild to moderate AD patients (MMSE scores=13 to 26) are enrolled from 6 centers in the United States. Patients are randomized to receive in 1:1:1:1 ratio of NC-758-1 at 50, 100, 150 mg BID or placebo BID for 12 weeks. Study medication is administered orally (tablet). For doses at multiples of 50 mg, multiple 50 mg tables are administered. Each patient is evaluated on 6 occasions at screening, baseline [Week 0], weeks 2, 4, 8 and 12. Blood samples are collected from each patient prior to dosing and at specified time points through 12 h post-dose after the first dose (Week 0) and the last dose (Week 12). Blood samples are also collected prior to the first dose of the day during Week 2, 4 and 8 visits.

[2] = dog, in vivo
Protocol: Furthermore, the non-hygroscopic nature of the acid form makes it desirable as active pharmaceutical ingredient. To further protect against any possible gastrointestinal intolerance that could result from the acid form, the tablets are enteric-coated and a modified-release agent is added to control any rapid release of the drug in the stomach and the intestine, respectively.

[3] = Example 9 Part II: food effect, single oral 100 mg 3-APS in elderly subjects, plasma pharmacokinetics; format: in vivo; details: both sexes, human, single oral 100 mg (Table 5 tablet), elderly male and female subjects; for AUC(0-inf) / Cmax / AUC(0-t): po, 100 mg; for AUC(0-inf): mean, only subjects with estimable elimination rate constant; for Cmax / AUC(0-t): n = 8, mean; for AUC(0-t): read-out: AUC0-Tlast
Protocol: as §1
Following single oral dosing of 100 mg 3-APS (modified-release coated formulation modified-release enteric-coated tablet as described in Table 5 above) to elderly (55 years or older) male and female subjects under fasted and fed (high fat) conditions, maximum plasma concentrations of 3-APS are attained at 5 and 10.5 h post-dose under fasted and fed conditions, respectively (Table 12A below and FIG. 5 showing the Mean Plasma Concentration-Time Profiles of 3-APS under Fasted and Fed Conditions following Single Oral Administration of 100 mg to Elderly Male and Female Subjects).

[4] = Example 10: 3-APS concentration in cerebrospinal fluid of AD patients; format: in vivo; details: human
Source text: as §2
(Patients having a CSF level below the lower limit of quantitation of the assay are considered as zero.) CSF concentrations of 3-APS on Day 2 of Week 12 after twice daily oral administration for 12 weeks are as follows: […]

[5] = Example 7 Part I: single rising oral doses of NC-758, plasma pharmacokinetics in healthy young and elderly male volunteers; format: in vivo, human; details: for AUC∞: mean, only subjects with estimable elimination rate constant
Source text: as §1
Cmax —the maximum observed plasma concentration.
Tmax—the time of occurrence of Cmax.
AUC0-t—the area under the plasma concentration versus time curve from time zero to the last sampling time at which concentrations were at or above the limit of quantification, calculated by the linear trapezoidal rule.
AUC∞—the area under the plasma concentrations versus time curve from time zero to infinity, calculated from AUC0-t+(Clast/λz), where Clast is the last observed quantifiable concentration and λz is the apparent terminal rate constant.
t1/2—the apparent terminal half-life, calculated from Ln2/λz.
Part I—The pharmacokinetic profile and the effect of food on single rising oral doses of 3-APS free acid, (modified-release enteric-coated tablet, as described in Table 3 above, hereinafter “NC-758”) in healthy male young (18-45 years) volunteers is determined. For doses at multiples of 100 mg, multiple 100 mg tables are administered. The pharmacokinetics of a single oral dose of NC-758 is also determined in a group of healthy male elderly (≧55 years old) volunteers. The test is a randomized, double-blind, placebo-controlled study to assess the pharmacokinetic profile of 4 single rising oral doses of NC-758 in healthy young (18-45 years) male subjects. Blood samples are collected during 24 h following dosing. Plasma concentrations of 3-APS are determined using a validated LC-MS/MS method.

[6] = Example 13: single 150 mg dose of Modified-Release Coated Tablets in healthy elderly male volunteers, plasma pharmacokinetics; format: in vivo; details: human, single oral 150 mg (3 × 50 mg Table 5 tablets), elderly male subjects; for AUC(0-inf) / Cmax / AUC(0-t): male, po, 150 mg; for AUC(0-t): read-out: AUC0-Tlast
Protocol: as §1
For the 150 mg dose, three 50 mg tables are administered.

[7] = 50 mg BID (Table 5 tablet), Week 0 (single dose), n = 15, mean
[8] = 100 mg BID (Table 5 tablet), Week 0 (single dose), n = 16, mean
[9] = 150 mg BID (Table 5 tablet), Week 0 (single dose), n = 14, mean
[10] = 200 mg dose, see Tables 9 and 10
[11] = single oral 100 mg NC-758 (Table 3 tablet), young (18-45 years) male subjects, fasted, n = 5, mean
[12] = single oral 200 mg NC-758 (Table 3 tablet), elderly (>55 years) male subjects, fasted, n = 6, mean
[13] = single oral 200 mg NC-758 (Table 3 tablet), young (18-45 years) male subjects, fasted, n = 6, mean
[14] = single oral 300 mg NC-758 (Table 3 tablet), young (18-45 years) male subjects, fasted, n = 5, mean
[15] = single oral 400 mg NC-758 (Table 3 tablet), young (18-45 years) male subjects, fasted, n = 3, mean
[16] = Fasting Conditions, n = 11, mean

Q: Which “AUC∞” value ([1]; 50 mg BID (Table 5 tablet), Week 0 (single dose)) does the source give for `NCCCS(=O)(=O)O` [3-APS, 3-amino-1-propanesulfonic acid] here?
A: 1396 ng·h/mL

Q: And the AUC(0-t) [1, 7]?
A: 1321 ng·h/mL

Q: What about the Cmax [1, 7] of the same molecule?
A: 310 ng/mL

Q: What about the Tmax ([1]; 50 mg BID (Table 5 tablet), Week 12 (repeated), n = 15, median) of the same molecule?
A: 3 h

Q: And the “AUC∞” value ([1]; 100 mg BID (Table 5 tablet), Week 0 (single dose))?
A: 2569 ng·h/mL

Q: What about the AUC(0-t) [1, 8] of the same molecule?
A: 2467 ng·h/mL

Q: And the Cmax [1, 8]?
A: 618 ng/mL

Q: And the Tmax ([1]; 100 mg BID (Table 5 tablet), Week 0 (single dose), n = 16, median)?
A: 4.5 h

Q: What about the Tmax ([1]; 100 mg BID (Table 5 tablet), Week 12 (repeated), n = 14, median) of the same molecule?
A: 3.5 h

Q: What about the “AUC∞” value ([1]; 150 mg BID (Table 5 tablet), Week 0 (single dose)) of the same molecule?
A: 3418 ng·h/mL

Q: What about the AUC(0-t) [1, 9] of the same molecule?
A: 2792 ng·h/mL

Q: And the Cmax [1, 9]?
A: 624 ng/mL

Q: What about the Tmax ([1]; 150 mg BID (Table 5 tablet), Week 12 (repeated), n = 11, median) of the same molecule?
A: 3 h

Q: And the tolerability [2]?
A: better tolerated than the sodium salt form

Q: And the AUC(0-inf) ([3]; Fasting Arm)?
A: 3290 ng·h/mL

Q: And the Cmax ([3]; Fasting Arm)?
A: 931 ng/mL

Q: What about the AUC(0-t) ([3]; Fasting Arm) of the same molecule?
A: 3220 ng·h/mL

Q: And the AUC(0-inf) ([3]; Fed Arm (high fat))?
A: 2830 ng·h/mL

Q: And the Cmax ([3]; Fed Arm (high fat))?
A: 671 ng/mL

Q: And the AUC(0-t) ([3]; Fed Arm (high fat))?
A: 3400 ng·h/mL

Q: And the Tmax ([3]; Fed Arm (high fat), n = 8, median)?
A: 10.5 h

Q: And the concentration at 5 h ([4]; dose 50 mg twice daily oral for 12 weeks, Day 2 of Week 12, read-out: CSF concentration with mean ± standard deviation)?
A: 1.07 ± 1.8 ng/mL

Q: What about the concentration at 5 h ([4]; dose 100 mg twice daily oral for 12 weeks, Day 2 of Week 12, read-out: CSF concentration with mean ± standard deviation) of the same molecule?
A: 4.36 ± 2.66 ng/mL

Q: And the concentration at 5 h ([4]; dose 150 mg twice daily oral for 12 weeks, Day 2 of Week 12, read-out: CSF concentration with mean ± standard deviation)?
A: 3.87 ± 2.74 ng/mL

Q: What about the concentration at 5 h ([4]; oral, 5 hours post-dose on Week 12, range of means across dose groups, levels below lower limit of quantitation considered as zero, read-out: mean concentrations of 3-APS in the cerebrospinal fluid (CSF)) of the same molecule?
A: 2.61 to 7.33 ng/mL

Q: What about the “AUC0-t greater in elderly subjects compared to young subjects” value [5, 10] of the same molecule?
A: approximately 70%

Q: What about the “Cmax greater in elderly subjects compared to young subjects” value [5, 10] of the same molecule?
A: approximately 70%

Q: What about the “AUC∞” value ([5]; single oral 100 mg NC-758 (Table 3 tablet), young (18-45 years) male subjects, fasted) of the same molecule?
A: 1421 ng·h/mL

Q: What about the AUC0-Tlast [5, 11] of the same molecule?
A: 1392 ng·h/mL

Q: And the Cmax [5, 11]?
A: 410 ng/mL

Q: And the AUC0-Tlast [5, 12]?
A: 4882 ng·h/mL

Q: And the Cmax [5, 12]?
A: 1094 ng/mL

Q: And the “AUC∞” value ([5]; single oral 200 mg NC-758 (Table 3 tablet), young (18-45 years) male subjects, fasted)?
A: 2492 ng·h/mL

Q: What about the AUC0-Tlast [5, 13] of the same molecule?
A: 2898 ng·h/mL

Q: And the Cmax [5, 13]?
A: 661 ng/mL

Q: What about the “AUC∞” value ([5]; single oral 300 mg NC-758 (Table 3 tablet), young (18-45 years) male subjects, fasted) of the same molecule?
A: 4464 ng·h/mL

Q: What about the AUC0-Tlast [5, 14] of the same molecule?
A: 3999 ng·h/mL

Q: What about the Cmax [5, 14] of the same molecule?
A: 904 ng/mL

Q: What about the AUC0-Tlast [5, 15] of the same molecule?
A: 15966 ng·h/mL

Q: And the Cmax [5, 15]?
A: 5367 ng/mL

Q: And the Tmax ([5]; single oral 400 mg NC-758 (Table 3 tablet), young (18-45 years) male subjects, fasted, n = 3, median)?
A: 2 h

Q: What about the Tmax ([6]; Fed Conditions, n = 10, median) of the same molecule?
A: 5.5 h

Q: And the AUC(0-inf) [6, 16]?
A: 3280 ng·h/mL

Q: And the Cmax [6, 16]?
A: 772 ng/mL

Q: And the AUC(0-t) [6, 16]?
A: 3210 ng·h/mL

Q: And the AUC(0-inf) ([6]; Fed Conditions, n = 10, mean)?
A: 5310 ng·h/mL

Q: And the Cmax ([6]; Fed Conditions, n = 10, mean)?
A: 980 ng/mL

Q: And the AUC(0-t) ([6]; Fed Conditions, n = 10, mean)?
A: 5160 ng·h/mL
